What was measured:
Assay type in all cases: in vivo, human
[1] = test system: subjects with early Parkinson's disease (PD); assay: Example 2: randomized double-blind futility trial, change in total UPDRS
Protocol: (§1) Study Design and Randomization. This example was a single arm futility study designed to assess creatine and minocycline. A placebo arm for calibration was included in the example. Eligible subjects were randomly assigned in a 1:1:1 fashion to receive 1) 10 g/day of creatine monohydrate and placebo minocycline, 2) placebo creatine monohydrate and 200 mg/day of minocycline, or 3) placebo creatine monohydrate and placebo minocycline. The primary futility analysis was at 12 months of follow-up, but each subject was followed for 18 months for additional safety information. Subjects and investigators were kept blinded to treatment group.
Participants. […] Two of the three cardinal manifestations of PD (tremor, rigidity, and bradykinesia) were required; these findings had to be asymmetric. The diagnosis of PD must have been made within 5 years of randomization. Women of childbearing potential were required to use adequate birth control and have a negative pregnancy test at baseline. Subjects were excluded if they had any secondary causes of parkinsonism, such as drug induced parkinsonism or structural lesions; had atypical parkinsonian syndromes; gait freezing or impairment in postural reflexes; had prior stereotaxis surgery for PD; used creatine, minocycline, or any investigational agent within 90 days prior to randomization; had known hypersensitivity to creatine or minocycline; used CoQ10 in doses greater than 300 mg 90 days prior to randomization; or had any clinically significant medical condition that could interfere with the subject's ability to safely participate in the study or be followed.
(§2) Dosages. Creatine was administered as 5 g sachets mixed with 8 ounces of liquid taken twice a day and minocycline was administered as 100 mg capsules taken twice a day. Both were taken with meals.
Outcome measures. […] Disability was assessed by the sight investigator, based on impairment in ambulation, activities in daily living, and occupational status. […] Both the site investigator and medical monitors assessed the potential relationship between SAEs and study drug. […]

patients with ALS = assay: Example 4: combined survival analysis of two placebo-controlled trials in amyotrophic lateral sclerosis; conditions: 5 gm per day
Protocol: The two trials analyzed included a total of 211 patients, 103 creatine-treated and 108 placebo-treated subjects.
For this analysis, a measure of treatment effect in an estimated pooled hazard ratio was calculated. This measure gives the risk of death for treated subjects divided by the risk of death for controls. Survival analysis by treatment was also performed for each trial separately. A Cox model was used to assess the hazard ratios and survival by treatment in the pooled data, controlling for trial effect and baseline variables. Baseline characteristics of the study populations were also compared. Continuous variables were compared by treatment and trial, using the analysis of variance by putting both treatment and trial as the […] variables. A Cochran-Mantel-Haenszel test statistic was used to compare discrete variables by treatment and trial, controlling for trial and treatment effects, respectively.

[2] = test system: subjects with early Parkinson's disease (PD); assay: Example 2: safety and tolerability in the early Parkinson's disease trial; conditions: human, in vivo
Protocol: as §1, §2
Outcome measures. The primary, prespecified outcome measure was the change in the total Unified PD Rating Scale (UPDRS) score from baseline to either the time at which there was sufficient disability to warrant symptomatic therapy for PD or 12 months, whichever came first. Disability was assessed by the sight investigator, based on impairment in ambulation, activities in daily living, and occupational status. The mean change in total UPDRS for each treatment group was compared to a prespecified futility threshold of a 30% reduction in the historically derived change in the total UPDRS, which was based on a placebo arm of a previous clinical trial. Tolerability was defined as the proportion of subjects taking study drug for the full 12 months. All […] adverse events (SAEs) were reviewed by the study medical monitor and an independent medical monitor. Both the site investigator and medical monitors assessed the potential relationship between SAEs and study drug.
Study Procedures. At the screening visit, the purpose and potential risks were explained to potential subjects and each subject gave written consent. […] Blood was obtained for serum chemistry and complete blood count. Participants were reevaluated at 1, 3, 6, 9, and 12 months (±6 days) after the baseline visit using the battery of clinical scales and blood was drawn again at 6 and 12 months.

CN(CC(=O)O)C(=N)N [Creatine, creatine monohydrate]
Mean (SD) change in total UPDRS ([1]; baseline to 12 months or time symptomatic therapy needed, creatine 10 g/day, minocycline 200 mg/day, worst change score imputed): 5.6 (8.69) | Futility analysis outcome ([1]; threshold 7.46 (30% less than 10.65 DATATOP historical progression)): could not be rejected as futile | Improvement of median survival over placebo (patients with ALS; pooled data): two-to-three | Adjusted hazard ratio, creatine group relative to placebo group (patients with ALS; pooled data of two trials, Cox model, 95% confidence interval 0.11 to 1.04, p=0.059): 0.34 | Median survival (patients with ALS; pooled data, placebo 27 months): 87 months | Hazard ratio, homogeneity of effect between trials (patients with ALS; p=0.062, 95% confidence interval 0.11 to 1.06): 0.34 | Patients with dose reductions [2]: 8

Reference: patent US20070292403A1, “Methods of treating a neurological disorder with creatine monohydrate” (priority 2006, published 2007)
